Assay results as given in patent publication US20260048028A1, “Methods of Use for Disulfiram and Metabolites Thereof” (PS Therapy, Inc., priority 2022, published 2026).

What was measured:
IL-8 mRNA = IL-8 mRNA levels in Aspergillus flavus infected human corneal epithelial cells; assay type: cell-based; details: HCE cells infected with A. flavus spores
Experimental: 3 sets of human corneal epithelial (“HCE”) cells were plated and assayed for IL-8 mRNA levels as a control. 9 sets of HC cells were then infected with […] of Aspergillus flavus spores. 16 hours post infection the cells were assayed for IL-8 mRNA levels. 3 sets of HCE cells were then administered DSF in DMSO. Several hours following administration of each, IL-8 mRNA levels were assayed.
3 sets of HCE cells were plated and assayed for IL-8 mRNA levels as a control. 9 sets of HC cells were then infected with […] of Aspergillus flavus spores. 16 hours post infection the cells were assayed for IL-mRNA levels. 3 sets of HCE cells were then each administered NaDDC in water. Several hours following administration of each, IL-8 mRNA levels were assayed.

[1] = test system: transforming growth factor beta 1 (TGFβ1); test: Alkali-burn injury in mice, RT-PCR expression of TGFβ1 in eyes; assay type: in vivo; details: RT-PCR of enucleated eyes after 7 days of topical 300 μM NaDDC three times daily
Experimental: (§1) C57BL/6 mice were divided into three groups, control group 1 (n=6), group 2 (n=6) and group 3 (n=3). Each group consisted of mice with their left eye (“LE”) left undisturbed as a control, while the right eye (“RE”) of all mice in each group was subjected to alkali burn. Prior to inducing alkali burn, mice were anesthetized using an injection of an anesthetic cocktail containing ketamine (20 mg/ml) and xylazine (4 mg/ml) at a dose of approximately […] per 25 g mouse. Topical analgesia was provided using proparacaine hydrochloride (0.5%) on the corneal surface. A round filter paper piece (˜2 mm in diameter) was soaked in a 0.5 M NaOH solution. […]
(§2) On the 7th day following the alkali burn, corneal images were captured using slit microscopy to monitor changes in corneal opacity and neovascularization. The degree of corneal injury was evaluated and scored in a blinded manner by trained observers. Corneal opacity was evaluated using a grading scale ranging from 0 to 4, where 0 represented a completely clear cornea, 1 indicated slight haziness with the iris and pupil easily visible, 2 denoted slight opacity with detectable iris and pupil, 3 indicated significant opacity with difficulty in detecting pupils, and 4 represented complete opacity with no view of the pupil. […]

[2] = test system: tumor necrosis factor alpha (TNFα); test: Alkali-burn injury in mice, RT-PCR expression of TNFα in eyes; assay type: in vivo; details: RT-PCR of enucleated eyes after 7 days of topical 300 μM NaDDC three times daily
Experimental: as §1, §2

gasdermin D (GSDMD) = test: Alkali-burn injury in mice, RT-PCR expression of GSDMD in eyes; assay type: in vivo; details: RT-PCR of enucleated eyes after 7 days of topical 300 μM NaDDC three times daily
Experimental: as §1, §2

IL-6 mRNA = IL-6 mRNA levels in HCE cells under hyperosmolarity; assay type: cell-based, human; details: 400 milliosmoles, 6 hours post hyperosmolarity induction, −control 290 milliosmoles
Experimental: Sets of HCE cells were plated in iso-osmotic solutions (290 milliosmoles) […] and assayed for IL-8 and IL-6 mRNA levels as a control. Sets of HC cells were subjected to hyperosmolarity conditions (i.e. placed in a solution having an osmolarity of 400 milliosmoles) either with or without NaDDC. 6 hours post hyperosmolarity induction the cells were assayed for IL-mRNA levels.

C57BL/6 mice = test: Alkali-burn injury in mice, slit-lamp scoring of corneal opacity and neovascularization; assay type: in vivo; details: topical three times daily for 7 days (NaDDC 300 μM); for corneal opacity mean score: grading scale 0 to 4, day 7 after alkali burn; for neovascularization score: scale 0 to 3, day 7 after alkali burn
Experimental: C57BL/6 mice were divided into three groups, control group 1 (n=6), group 2 (n=6) and group 3 (n=3). Each group consisted of mice with their left eye (“LE”) left undisturbed as a control, while the right eye (“RE”) of all mice in each group was subjected to alkali burn. Prior to inducing alkali burn, mice were anesthetized using an injection of an anesthetic cocktail containing ketamine (20 mg/ml) and xylazine (4 mg/ml) at a dose of approximately […] per 25 g mouse. Topical analgesia was provided using proparacaine hydrochloride (0.5%) on the corneal surface. A round filter paper piece (˜2 mm in diameter) was soaked in a 0.5 M NaOH solution. The NaOH-soaked filter paper was gently placed on the central cornea of the RE for precisely 30 seconds, generating an acute alkali burn. Following the removal of the filter paper, the RE was flushed gently with 10 ml of 1×PBS using a 10 ml syringe to ensure thorough removal of residual NaOH. Immediately after the eye flush, the treatment application was initiated for Group 2 and Group 3 mice. Group 1 was left untreated. For Group 2, a drop of 300 μM NaDDC was topically applied to the cornea of the RE. For Group 3, the RE was topically treated with commercially available prednisolone. The treatment was repeated three times daily for a duration of 7 days.
On the 7th day following the alkali burn, corneal images were captured using slit microscopy to monitor changes in corneal opacity and neovascularization. The degree of corneal injury was evaluated and scored in a blinded manner by trained observers. Corneal opacity was evaluated using a grading scale ranging from 0 to 4, where 0 represented a completely clear cornea, 1 indicated slight haziness with the iris and pupil easily visible, 2 denoted slight opacity with detectable iris and pupil, 3 indicated significant opacity with difficulty in detecting pupils, and 4 represented complete opacity with no view of the pupil. The degree of neovascularization was scored on a scale of 0 to 3, with 0 indicating no new vessels, 1 representing new vessels present at the corneal limbus, 2 denoting new vessels extending from the corneal limbus toward the corneal centre, and 3 indicating new vessels spanning the entire corneal centre. At the end of the treatment period, mice from control group 1 and NaDDC treated group 2 were sacrificed and the eyes were enucleated for further analysis, including RT-PCR studies, to investigate the expression levels of tumor necrosis factor alpha (“TNFα”), gasdermin D (“GSDMD”), intercellular adhesion molecule 1 (“ICAM1”) and transforming growth factor beta 1 (“TGFβ1”).

[3] = test system: intercellular adhesion molecule 1 (ICAM1); test: Alkali-burn injury in mice, RT-PCR expression of ICAM1 in eyes; assay type: in vivo; details: RT-PCR of enucleated eyes after 7 days of topical 300 μM NaDDC three times daily
Experimental: as §1, §2

[4] = DSF in DMSO given 16 hours post infection
[5] = NaDDC in water given 16 hours post infection

SMILES | IL-8 mRNA levels (% change from uninfected) (IL-8 mRNA; [4]) [%] | IL-8 mRNA levels (% reduction from water) (IL-8 mRNA; [4]) [%] | TGFβ1 expression, % of untreated control group [1] [%] | IL-8 mRNA levels (% increase from uninfected) (IL-8 mRNA; [5]) [%] | IL-8 mRNA levels (% reduction from water) (IL-8 mRNA; [5]) [%] | expression level of TNFα, % of untreated control group [2] [%] | GSDMD expression, % of untreated control group (gasdermin D (GSDMD)) [%] | IL-6 mRNA levels (% increase from −control) (IL-6 mRNA) [%] | corneal opacity mean score (C57BL/6 mice) | neovascularization score (C57BL/6 mice) | ICAM1 expression, % of untreated control group [3] [%]
CCN(CC)C(=S)SSC(=S)N(CC)CC [DSF, 1,1′-disulfanediylbis(N,N-diethylmethanethioamide), reference compound] | 21.2 | 88.5 |  |  |  |  |  |  |  |  | 
CCN(CC)C(=S)[S-].[Na+] [NaDDC, sodium;N,N-diethylcarbamodithioate] |  |  | 28 | 10.5 | 85.19 | 8 | 42 | 100 | 0.83 | 0 | 5
C[C@]12C=CC(=O)C=C1CC[C@@H]1[C@@H]2[C@@H](O)C[C@@]2(C)[C@H]1CC[C@]2(O)C(=O)CO [prednisolone, reference compound] |  |  |  |  |  |  |  |  | 2.67 | 0 | 
